Earlier results on 1 compound are cited in patent US20190150439A1, “SOLUBLE LIQUID FORMULATIONS OF QUINCLORAC AMMONIUM SALTS” (BASF SE, priority 2012, published 2019).

For the data set the following is noted: pH 7 at 20° C.

With `O=C(O)c1c(Cl)ccc2cc(Cl)cnc12` [Quinclorac, 3,7-dichloro-8-quinolinecarboxylic acid], the solubility in water is given as 0.065 mg/kg.
